Assay results taken from patent publication US9150566B2, “2-(1,2,3-triazol-2-yl)benzamide and 3-(1,2,3-triazol-2-YL)picolinamide derivatives as orexin receptor antagonists” (ACTELION PHARMACEUTICALS LTD., priority 2011, dated 2015).
Where two headings read alike, the source gives them in different places.

Tests used:
human orexin-1 receptor = human orexin-1 receptor (Homo sapiens (Human), UniProt O43613); assay: In vitro intracellular calcium measurements (FLIPR), antagonistic activity on orexin-1 receptor; type: cell-based; details: read-out: IC50 OX1
human orexin-1 receptor, sequence (O43613 whole entry): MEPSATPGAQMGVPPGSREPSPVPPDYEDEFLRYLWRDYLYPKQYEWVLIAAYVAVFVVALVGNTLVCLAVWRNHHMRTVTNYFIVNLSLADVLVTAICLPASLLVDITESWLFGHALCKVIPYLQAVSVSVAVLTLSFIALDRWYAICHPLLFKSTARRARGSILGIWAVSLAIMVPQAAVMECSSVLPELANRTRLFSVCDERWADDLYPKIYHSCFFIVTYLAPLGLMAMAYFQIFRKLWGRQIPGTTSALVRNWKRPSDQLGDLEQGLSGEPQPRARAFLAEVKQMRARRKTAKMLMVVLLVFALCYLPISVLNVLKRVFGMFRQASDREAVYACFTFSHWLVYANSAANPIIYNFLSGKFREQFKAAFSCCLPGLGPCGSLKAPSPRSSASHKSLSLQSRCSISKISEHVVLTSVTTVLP
Experimental: (§1) In Vitro Assay: Intracellular Calcium Measurements:
(§2) Chinese hamster ovary (CHO) cells expressing the human orexin-1 receptor and the human orexin-2 receptor, respectively, are grown in culture medium (Ham F-12 with L-Glutamine) containing 300 μg/mL G418, 100 U/mL penicillin, 100 μg/mL streptomycin and 10% heat inactivated fetal calf serum (FCS). The cells are seeded at 20′000 cells/well into 384-well black clear bottom sterile plates (Greiner). The seeded plates are incubated overnight at 37° C. in 5% CO2.
(§3) Within the Fluorescent Imaging Plate Reader (FLIPR Tetra, Molecular Devices), antagonists are added to the plate in a volume of 10 μL/well, incubated for 120 min and finally 10 μL/well of agonist is added. Fluorescence is measured for each well at 1 second intervals, and the height of each fluorescence peak is compared to the height of the fluorescence peak induced by 3 nM orexin-A with vehicle in place of antagonist. […] Optimized conditions were achieved by adjustment of pipetting speed and cell splitting regime. The calculated IC50 values may fluctuate depending on the daily cellular assay performance. Fluctuations of this kind are known to those skilled in the art.

human orexin-2 receptor = human orexin-2 receptor (Homo sapiens (Human), UniProt O43614); assay: In vitro intracellular calcium measurements (FLIPR), antagonistic activity on orexin-2 receptor; type: cell-based; details: read-out: IC50 OX2
human orexin-2 receptor, sequence (O43614 whole entry): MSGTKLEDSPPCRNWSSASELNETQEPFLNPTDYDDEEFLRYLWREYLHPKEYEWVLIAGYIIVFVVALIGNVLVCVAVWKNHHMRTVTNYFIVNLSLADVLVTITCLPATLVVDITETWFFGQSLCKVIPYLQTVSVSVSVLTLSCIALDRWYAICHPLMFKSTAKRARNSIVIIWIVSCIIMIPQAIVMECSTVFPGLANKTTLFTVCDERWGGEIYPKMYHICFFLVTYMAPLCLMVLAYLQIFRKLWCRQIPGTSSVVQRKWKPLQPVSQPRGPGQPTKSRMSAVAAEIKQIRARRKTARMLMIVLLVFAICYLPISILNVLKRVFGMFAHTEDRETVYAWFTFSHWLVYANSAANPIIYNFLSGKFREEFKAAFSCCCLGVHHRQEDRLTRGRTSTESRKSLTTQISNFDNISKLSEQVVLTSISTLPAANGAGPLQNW
Experimental: as §1, §2, §3

CYP3A4 = CYP3A4 (Homo sapiens (Human), UniProt P08684); assay: CYP3A4 inhibition assay (human liver microsomes, testosterone 6β-hydroxylation); details: read-out: CYP3A4 IC50, 40 μM testosterone
CYP3A4, sequence (P08684 whole entry): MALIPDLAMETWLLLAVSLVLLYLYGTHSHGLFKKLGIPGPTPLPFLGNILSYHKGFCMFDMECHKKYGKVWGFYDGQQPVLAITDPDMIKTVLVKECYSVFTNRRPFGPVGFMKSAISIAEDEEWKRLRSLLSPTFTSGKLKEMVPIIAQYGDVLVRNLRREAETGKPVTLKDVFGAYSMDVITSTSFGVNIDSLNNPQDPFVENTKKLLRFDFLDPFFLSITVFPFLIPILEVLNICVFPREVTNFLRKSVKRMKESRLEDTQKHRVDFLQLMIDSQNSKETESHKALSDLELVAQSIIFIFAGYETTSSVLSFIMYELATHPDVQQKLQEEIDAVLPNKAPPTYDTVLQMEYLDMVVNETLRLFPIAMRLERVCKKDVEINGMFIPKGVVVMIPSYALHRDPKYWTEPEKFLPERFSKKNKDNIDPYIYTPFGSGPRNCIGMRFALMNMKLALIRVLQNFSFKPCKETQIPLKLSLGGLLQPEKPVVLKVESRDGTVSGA

[1] = CHO cells expressing human orexin-1 receptor, FLIPR, 3 nM orexin-A agonist, 120 min antagonist incubation, geometric mean if determined several times
[2] = CHO cells expressing human orexin-2 receptor, FLIPR, 3 nM orexin-A agonist, 120 min antagonist incubation, geometric mean if determined several times

Row | Structure (SMILES) | IC50 (human orexin-1 receptor; [1]) [nM] | IC50 (human orexin-2 receptor; [2]) [nM] | IC50 (CYP3A4) [nM] | IC50 (human orexin-1 receptor) [nM] | IC50 (human orexin-2 receptor) [nM]
1 | COc1ccc(C[C@@H]2COCCN2C(=O)c2ccccc2-n2nccn2)cc1-c1ncccn1 [Example 5, [(R)-3-(4-Methoxy-3-pyrimidin-2-yl-benzyl)-morpholin-4-yl]-(2-[1,2,3]triazol-2-yl-phenyl)-methanone] | 4 | 2950 | > 50000 |  | 
2 | COc1ccc(C[C@@H]2COCCN2C(=O)c2ccccc2-n2nccn2)cc1-c1cnccn1 [Example 6] | 12 | 1940 | 26000 |  | 
3 | COc1ccc(C[C@@H]2COCCN2C(=O)c2ccccc2-n2nccn2)cc1-c1cccnn1 [Example 7, [(R)-3-(4-Methoxy-3-pyridazin-3-yl-benzyl)-morpholin-4-yl]-(2-[1,2,3]triazol-2-yl-phenyl)-methanone] | 26 | 6090 | > 50000 |  | 
4 | COc1ccc(C[C@@H]2COCCN2C(=O)c2ccccc2-n2nccn2)cc1-c1nccs1 [Example 8, [(R)-3-(4-Methoxy-3-thiazol-2-yl-benzyl)-morpholin-4-yl]-(2-[1,2,3]triazol-2-yl-phenyl)-methanone] | 1 | 335 | 3200 |  | 
5 | COc1ccc(C[C@@H]2COCCN2C(=O)c2ccccc2-n2nccn2)cc1-n1cccn1 [Example 14, [(R)-3-(4-Methoxy-3-pyrazol-1-yl-benzyl)-morpholin-4-yl]-(2-[1,2,3]triazol-2-yl-phenyl)-methanone] | 3 | 905 | > 50000 |  | 
6 | Cc1ccc(-n2nccn2)c(C(=O)N2CCOC[C@H]2Cc2cccc(-n3ccnn3)c2)c1 [Example 15, (5-Methyl-2-[1,2,3]triazol-2-yl-phenyl)-[(R)-3-(3-[1,2,3]triazol-1-yl-benzyl)-morpholin-4-yl]-methanone] | 24 | 3160 | 14000 |  | 
7 | Cc1ccc(-n2nccn2)c(C(=O)N2CCOC[C@H]2Cc2cccc(-n3cncn3)c2)c1 [Example 23, (5-Methyl-2-[1,2,3]triazol-2-yl-phenyl)-[(R)-3-(3-[1,2,4]triazol-1-yl-benzyl)-morpholin-4-yl]-methanone] | 34 | 4780 | 6000 |  | 
8 | Cc1ccc(-n2nccn2)c(C(=O)N2CCOC[C@H]2Cc2cccc(-c3ccncc3)c2)c1 [Example 28, (5-Methyl-2-[1,2,3]triazol-2-yl-phenyl)-[(R)-3-(3-pyridin-4-yl-benzyl)-morpholin-4-yl]-methanone] | 43 | 2110 | 300 |  | 
9 | COc1ccc(-n2nccn2)c(C(=O)N2CCOC[C@H]2Cc2cccc(-n3nccn3)c2)c1 [Example 32, (5-Methoxy-2-[1,2,3]triazol-2-yl-phenyl)-[(R)-3-(3-[1,2,3]triazol-2-yl-benzyl)-morpholin-4-yl]-methanone] |  |  | > 50000 | 7 | 489
10 | COc1cc(C(=O)N2CCOC[C@H]2Cc2cccc(-n3nccn3)c2)c(-n2nccn2)cc1OC [Example 34, (4,5-Dimethoxy-2-[1,2,3]triazol-2-yl-phenyl)-[(R)-3-(3-[1,2,3]triazol-2-yl-benzyl)-morpholin-4-yl]-methanone] | 5 | 1230 | > 50000 |  | 
11 | O=C(c1ccc(F)cc1-n1nccn1)N1CCOC[C@H]1Cc1cccc(-n2nccn2)c1 [Example 36, (4-Fluoro-2-[1,2,3]triazol-2-yl-phenyl)-[(R)-3-(3-[1,2,3]triazol-2-yl-benzyl)-morpholin-4-yl]-methanone] |  |  | 36000 | 41 | 889
12 | Cc1ccc(-n2nccn2)c(C(=O)N2CCOC[C@H]2Cc2cccc(-c3nccc(C)n3)c2)c1 [Example 39, {(R)-3-[3-(4-Methyl-pyrimidin-2-yl)-benzyl]-morpholin-4-yl}-(5-methyl-2-[1,2,3]triazol-2-yl-phenyl)-methanone] | 5 | 231 | 18000 |  | 
13 | O=C(c1ccccc1-n1nccn1)N1CCOC[C@H]1Cc1cccc(-c2nccs2)c1 [Example 44, [(R)-3-(3-Thiazol-2-yl-benzyl)-morpholin-4-yl]-(2-[1,2,3]triazol-2-yl-phenyl)-methanone] | 2 | 457 | 2000 |  | 

Further molecules by falling IC50 (human orexin-1 receptor; [1]), results first:

Row | IC50 (human orexin-1 receptor; [1]) [nM] | IC50 (human orexin-2 receptor; [2]) [nM] | IC50 (CYP3A4) [nM] | Structure (SMILES) | IC50 (human orexin-1 receptor) [nM] | IC50 (human orexin-2 receptor) [nM]
14 | 34 | 2010 | 5100 | O=C(c1ccccc1-n1nccn1)N1CCOC[C@H]1Cc1cccc(-c2ncco2)c1 [Example 42, [(R)-3-(3-Oxazol-2-yl-benzyl)-morpholin-4-yl]-(2-[1,2,3]triazol-2-yl-phenyl)-methanone] |  | 
15 | 33 | 360 | > 50000 | N#Cc1ccc(-n2nccn2)c(C(=O)N2CCOC[C@H]2Cc2cccc(-n3nccn3)c2)c1 [Example 31, 4-[1,2,3]Triazol-2-yl-3-[(R)-3-(3-[1,2,3]triazol-2-yl-benzyl)-morpholine-4-carbonyl]-benzonitrile] |  | 
16 | 25 | 1530 | 25000 | O=C(c1cc(F)ccc1-n1nccn1)N1CCOC[C@H]1Cc1cccc(-n2cccn2)c1 [Example 20, (5-Fluoro-2-[1,2,3]triazol-2-yl-phenyl)-[(R)-3-(3-pyrazol-1-yl-benzyl)-morpholin-4-yl]-methanone] |  | 
17 | 22 | 1890 | 39000 | O=C(c1ccccc1-n1nccn1)N1CCOC[C@H]1Cc1cccc(-c2ncccn2)c1 [Example 18, [(R)-3-(3-Pyrimidin-2-yl-benzyl)-morpholin-4-yl]-(2-[1,2,3]triazol-2-yl-phenyl)-methanone] |  | 
18 | 21 | 822 | 24000 | O=C(c1cc(F)ccc1-n1nccn1)N1CCOC[C@H]1Cc1cccc(-n2nccn2)c1 [Example 26, (5-Fluoro-2-[1,2,3]triazol-2-yl-phenyl)-[(R)-3-(3-[1,2,3]triazol-2-yl-benzyl)-morpholin-4-yl]-methanone] |  | 
19 | 14 | 1200 | > 50000 | COc1ccc(-n2nccn2)c(C(=O)N2CCOC[C@H]2Cc2cccc(-n3nccn3)c2)c1F [Example 33, (2-Fluoro-3-methoxy-6-[1,2,3]triazol-2-yl-phenyl)-[(R)-3-(3-[1,2,3]triazol-2-yl-benzyl)-morpholin-4-yl]-methanone] |  | 
20 | 6 | 1880 | 1200 | COc1ccc(C[C@@H]2COCCN2C(=O)c2ccccc2-n2nccn2)cc1-c1cccnc1 [Example 4, [(R)-3-(4-Methoxy-3-pyridin-3-yl-benzyl)-morpholin-4-yl]-(2-[1,2,3]triazol-2-yl-phenyl)-methanone] |  | 
21 | 4 | 3340 | 21000 | COc1ccc(C[C@@H]2COCCN2C(=O)c2ccccc2-n2nccn2)cc1-c1ccccn1 [Example 3, [(R)-3-(4-Methoxy-3-pyridin-2-yl-benzyl)-morpholin-4-yl]-(2-[1,2,3]triazol-2-yl-phenyl)-methanone] |  | 
22 | 3 | 318 | 41000 | Cc1ccc(C(=O)N2CCOC[C@H]2Cc2cccc(-n3cccn3)c2)c(-n2nccn2)c1 [Example 22, (4-Methyl-2-[1,2,3]triazol-2-yl-phenyl)-[(R)-3-(3-pyrazol-1-yl-benzyl)-morpholin-4-yl]-methanone] |  | 
23 | 3 | 1030 | > 50000 | Cc1ccc(-n2nccn2)c(C(=O)N2CCOC[C@H]2Cc2cccc(-c3ccccn3)c2)c1 [Example 24, (5-Methyl-2-[1,2,3]triazol-2-yl-phenyl)-[(R)-3-(3-pyridin-2-yl-benzyl)-morpholin-4-yl]-methanone] |  | 
24 | 2 | 468 | 8400 | COc1ccc(C[C@@H]2COCCN2C(=O)c2ccccc2-n2nccn2)cc1-c1ncco1 [Example 9, [(R)-3-(4-Methoxy-3-oxazol-2-yl-benzyl)-morpholin-4-yl]-(2-[1,2,3]triazol-2-yl-phenyl)-methanone] |  | 
25 | 2 | 396 | 33000 | Cc1ccc(-n2nccn2)c(C(=O)N2CCOC[C@H]2Cc2cccc(-c3ncccn3)c2)c1 [Example 17, (5-Methyl-2-[1,2,3]triazol-2-yl-phenyl)-[(R)-3-(3-pyrimidin-2-yl-benzyl)-morpholin-4-yl]-methanone] |  | 
26 | 2 | 369 | 32000 | Cc1ccc(-n2nccn2)c(C(=O)N2CCOC[C@H]2Cc2cccc(-n3cccn3)c2)c1 [Example 19, (5-Methyl-2-[1,2,3]triazol-2-yl-phenyl)-[(R)-3-(3-pyrazol-1-yl-benzyl)-morpholin-4-yl]-methanone] |  | 
27 | 0.3 | 273 | 1200 | Cc1ccc(-n2nccn2)c(C(=O)N2CCOC[C@H]2Cc2cccc(-c3nccs3)c2)c1 [Example 43, (5-Methyl-2-[1,2,3]triazol-2-yl-phenyl)-[(R)-3-(3-thiazol-2-yl-benzyl)-morpholin-4-yl]-methanone] |  | 
